Laboratory results from publication PMC4689404, “2-Benzazolyl-4-Piperazin-1-Ylsulfonylbenzenecarbohydroxamic Acids as Novel Selective Histone Deacetylase-6 Inhibitors with Antiproliferative Activity” (PLoS ONE, 2015).
Where two headings read alike, the source gives them in different places.

Tests used:
[1] = test system: epigenetically silenced GFP transgene in LDR cells; assay: locus derepression (LDR) assay, GFP induction; assay type: cell-based; parameters: key to GFP Induc.: -: —negative; settings: for GFP Induc.: Fig 4
Method: LDR cells were maintained in DMEM with L-glutamine and high glucose, 1 mM sodium pyruvate, 0.1 mM MEM non-essential amino acids, 1% v/v penicillin-streptomycin and 10% heat inactivated FBS. Cells were seeded on glass bottom chambers at low-medium density and allowed to attach overnight. Compounds were then added for 24h at the indicated dose and cells were imaged under a fluorescent microscope equipped with a camera using a 20 or 40X objective. All images shown were exposed for identical time.

[2] = biological target: T1, partially purified HDAC1 from mouse A20 cells (Mus musculus, UniProt O09106); assay: HDAC1 activity assay, partially purified enzyme, [3H]acetate-prelabeled histones; assay type: biochemical; settings: Table 3; partially purified HDAC1; read-out: HDAC1 IC50
T1 construct: from mouse A20 cells was used as enzyme source; endogenous in cells; host or cells: mouse A20 cells
Description: For inhibition assays, partially purified HDAC1 (70–80 fold enriched relative to crude samples) from mouse A20 cells was used as enzyme source. HDAC1 activity was purified by a combination of anion exchange chromatography (Mono Q), affinity chromatography (Poly-lysin agarose, Heparin Sepharose) and TSK size exclusion chromatography (Jesacher and Loidl, unpublished). HDAC1 protein was identified by immunoblotting using anti mouse HDAC1 antibodies (collaboration with Zymed Laboratories, Inc., San Francisco, California, USA). HDAC activity was determined as described by Sendra et al., [20] using [^3H]acetate-prelabeled chicken reticulocyte histones as substrate. 50 μL of mouse HDAC1 were incubated with different concentrations of compounds for 10 min on ice and 10 μL of total [^3H] acetate pre-labeled chicken reticulocyte histones (4 mg/mL) were added, resulting in a concentration of 41 μM. This mixture was incubated at 37°C for 1 h. The reaction was stopped by addition of 50 μL of 1 M HCl/0.4 M acetylacetate and 1 mL ethylacetate. After centrifugation at 10000 x g for 5 min an aliquot of 600 μL of the upper phase was counted for radioactivity in 3 mL liquid scintillation cocktail.

HCC4017 = assay: MTS viability assay; assay type: cell-based, human; settings: for IC50: Patient A cancer line, MTS, 4 days, read-out: Antiproliferative activity IC50, HCC4017; for Selectivity (HBEC-30KT vs HCC4017): Patient A
Method: (§1) Immortalized normal human bronchial epithelial cells (also provided by Dr. John D. Minna) were cultured in KSFM supplemented with pituitary extract and EGF. For viability assays, cells were plated on 96 well plates and grown overnight. Cells were then exposed to increasing doses of the indicated compounds for 4 days and their viability assayed using the Promega Cell Titer 96 AQueous One kit per the manufacturer’s protocol. All doses were tested in 4–8 replicates. IC50 values were calculated using the in-house software DIVISA.

HCC4018 = assay: MTS viability assay; assay type: cell-based, human; settings: for IC50: Patient B cancer line, MTS, 4 days, read-out: Antiproliferative activity IC50, HCC4018; for Selectivity (HBEC-34KT vs HCC4018): Patient B
Method: as §1

HBEC-30KT = assay: MTS viability assay; assay type: cell-based, human; settings: Patient A normal line, 4 days, read-out: Antiproliferative activity IC50, HBEC-30KT
Method: as §1, with “Lung cancer cells (kindly provided by Dr. John D. Minna, [13, 21]) were maintained in RPMI 1640 media supplemented with 10% FBS. Immortalized” for “Immortalized”

HBEC-34KT = assay: MTS viability assay; assay type: cell-based, human; settings: Patient B normal line, 4 days, read-out: Antiproliferative activity IC50, HBEC-34KT
Method: as §1, with “Lung cancer cells (kindly provided by Dr. John D. Minna, [13, 21]) were maintained in RPMI 1640 media supplemented with 10% FBS. Immortalized” for “Immortalized”

recombinant HDAC1 = biological target: T2, recombinant HDAC1 (Homo sapiens, UniProt Q13547); assay: comparative HDAC inhibition assay (Millipore fluorometric kit); assay type: biochemical; settings: recombinant HDAC1, fluorometric substrate; Table 4
T2 construct: purchased Epigenetek
Method: (§2) For the direct comparison of HDAC1 vs. HDAC6 inhibition, HDAC activity was analyzed using the HDAC Assay Kit from Millipore (17–356). Briefly, recombinant HDAC1 or recombinant HDAC6 (both purchased from Epigenetek, Purity of HDAC1 is more than 60% and purity HDAC6 is more than 85%). was incubated with the fluorometric HDAC substrate according to the manufacturer’s protocol in the presence of DMSO vehicle or increase compound doses. In a secondary activator reaction, the fluorophore is only cleaved from the deacetylated substrate, allowing for quantification. Fluorescence was quantified on a FLUOstar-Optima or a FLUOstar Omega plate reader (BMG Biosciences).

recombinant HDAC6 = biological target: T3, recombinant HDAC6 (Homo sapiens, UniProt Q9UBN7); assay: as above; assay type: biochemical; settings: for IC50: read-out: HDAC6 IC50
T3 construct: purchased Epigenetek
T3 sequence (Q9UBN7 1-1215): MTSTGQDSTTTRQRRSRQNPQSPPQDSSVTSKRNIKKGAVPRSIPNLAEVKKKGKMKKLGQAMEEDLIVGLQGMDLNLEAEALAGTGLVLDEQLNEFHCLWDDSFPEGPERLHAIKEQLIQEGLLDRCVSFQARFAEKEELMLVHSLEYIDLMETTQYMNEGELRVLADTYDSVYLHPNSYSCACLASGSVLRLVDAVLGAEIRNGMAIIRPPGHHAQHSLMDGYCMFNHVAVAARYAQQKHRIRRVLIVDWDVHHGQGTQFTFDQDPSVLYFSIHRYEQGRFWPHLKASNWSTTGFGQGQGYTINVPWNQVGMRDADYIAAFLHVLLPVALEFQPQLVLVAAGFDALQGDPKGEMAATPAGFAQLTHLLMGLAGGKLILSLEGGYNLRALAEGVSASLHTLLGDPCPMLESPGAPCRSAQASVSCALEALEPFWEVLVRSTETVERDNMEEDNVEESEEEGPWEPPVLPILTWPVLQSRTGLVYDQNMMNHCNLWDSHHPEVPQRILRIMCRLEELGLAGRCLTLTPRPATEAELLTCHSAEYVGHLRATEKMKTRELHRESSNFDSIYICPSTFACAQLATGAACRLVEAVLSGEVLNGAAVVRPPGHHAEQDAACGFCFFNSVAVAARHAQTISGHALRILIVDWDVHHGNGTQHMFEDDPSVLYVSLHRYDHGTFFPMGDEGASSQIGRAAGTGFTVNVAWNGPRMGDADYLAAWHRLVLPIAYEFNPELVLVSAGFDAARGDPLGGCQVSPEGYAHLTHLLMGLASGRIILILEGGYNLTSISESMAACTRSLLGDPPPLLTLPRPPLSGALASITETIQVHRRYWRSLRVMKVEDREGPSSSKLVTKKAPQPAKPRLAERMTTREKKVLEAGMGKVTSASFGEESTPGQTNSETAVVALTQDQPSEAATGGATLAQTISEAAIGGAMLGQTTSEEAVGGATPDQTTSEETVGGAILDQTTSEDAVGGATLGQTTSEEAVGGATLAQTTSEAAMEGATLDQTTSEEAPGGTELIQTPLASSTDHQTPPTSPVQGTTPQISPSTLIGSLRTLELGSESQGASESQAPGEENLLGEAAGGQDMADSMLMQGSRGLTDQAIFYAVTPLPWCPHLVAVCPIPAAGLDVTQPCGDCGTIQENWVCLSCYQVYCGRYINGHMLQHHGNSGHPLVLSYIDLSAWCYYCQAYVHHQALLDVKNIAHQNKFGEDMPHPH
Method: as §2

HDAC1 [3] = settings: read-out: HDAC1 IC50; Table 4; cited from earlier work
HDAC6 = settings: read-out: HDAC6 IC50; Table 4; cited from earlier work
HDAC1 [4] = settings: Table 4; cited from earlier work

T1 sequence (O09106 whole entry): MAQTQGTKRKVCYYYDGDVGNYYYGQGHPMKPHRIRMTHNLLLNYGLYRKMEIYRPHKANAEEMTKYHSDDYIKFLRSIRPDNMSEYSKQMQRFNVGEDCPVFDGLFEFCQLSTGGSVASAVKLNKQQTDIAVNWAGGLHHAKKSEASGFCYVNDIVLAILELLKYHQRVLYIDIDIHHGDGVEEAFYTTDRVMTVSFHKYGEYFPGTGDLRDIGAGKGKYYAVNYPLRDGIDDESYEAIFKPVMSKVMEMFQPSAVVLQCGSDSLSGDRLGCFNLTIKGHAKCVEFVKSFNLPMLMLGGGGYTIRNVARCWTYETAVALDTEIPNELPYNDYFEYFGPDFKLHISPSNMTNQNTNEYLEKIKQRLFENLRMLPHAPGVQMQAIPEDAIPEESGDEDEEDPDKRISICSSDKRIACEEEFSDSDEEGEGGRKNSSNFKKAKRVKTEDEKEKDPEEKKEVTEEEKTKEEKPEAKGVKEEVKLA
T2 sequence (Q13547 whole entry): as the sequence (O09106 whole entry) above, with K8R, E399D, D424E counted along it

With `O=C(NO)c1ccc(S(=O)(=O)N2CCN(c3nc4ccccc4[nH]3)CC2)cc1` [Compound 9a, 4-[4(1H-Benzimidazol-2-yl)-pipreazin-1-sulfonyl]-N-hydroxy-benzamid] the “GFP induction / activity in the LDR assay” value [1] was “inactive”, the “GFP Induc.” value [1] was “-” and the IC50 [2] was 12.4 µM. For the same compound, the IC50 (HCC4017; Homo sapiens, HCC4017, 96 h) was over 10000 nM, the “cellular activity” value (HCC4017; MTS viability, lung cancer and normal lines) was “no cellular activity” and the IC50 (HCC4018; Homo sapiens, 96 h) was over 10000 nM. For the same compound, the IC50 (HBEC-30KT; Homo sapiens, 96 h) was over 10000 nM, the IC50 (HBEC-34KT; Homo sapiens, 96 h) was over 10000 nM and the IC50 (recombinant HDAC1) was 6 ± 2.9 µM. For the same compound, the IC50 (recombinant HDAC6; Table 3) was 1000 nM, the “Selectivity Index HDAC1/HDAC6” value (recombinant HDAC6; Table 4) was 6.5 and the IC50 (recombinant HDAC6; recombinant HDAC6, fluorometric substrate, Table 4) was 930 ± 750 nM. The melting point was 382 to 383 °C (dec.).

For `Cn1c(N2CCN(S(=O)(=O)c3cccc(C(=O)NO)c3)CC2)nc2ccccc21` [Compound 8b, 3-[4-(1-Methyl-Benzimidazol-2-yl)-piperazin-1-sulfonyl]-N -hydroxy-benzamid], the “GFP Induc.” value [1] was “-”, the IC50 [2] was 316 µM and the melting point was 167 to 169 °C.

With `O=C(NO)c1cccc(S(=O)(=O)N2CCN(c3nc4ccccc4s3)CC2)c1` [Compound 8d, 3-(4-Benzothiazol-2-yl-piperazin-1-sulfonyl)-N -hydroxy-benzamid] the “GFP Induc.” value [1] was “-”, the IC50 [2] was 140 µM and the melting point was 207 to 210 °C.

With `C/C=C1\NC(=O)[C@H]2CSSCC/C=C/[C@H](CC(=O)N[C@H](C(C)C)C(=O)N2)OC(=O)[C@H](C(C)C)NC1=O` [Depsi., Depsipeptide, reference compound] the “Selectivity (HBEC-30KT vs HCC4017)” value (HCC4017) was 0.14, the IC50 (HCC4017) was 6.5 nM and the “toxicity to normal vs patient-matched cancer cells” value (HCC4017; both paired cell lines) was “more toxic to normal cells than to the patient-matched cancer cells”. For the same compound, the “Selectivity (HBEC-34KT vs HCC4018)” value (HCC4018) was 0.31, the IC50 (HCC4018) was 4.2 nM and the IC50 (HBEC-30KT) was 0.9 nM. It also gave an IC50 (HBEC-34KT) of 1.3 nM.

For `O=C(NO)c1cccc(S(=O)(=O)N2CCN(c3nc4ccccc4o3)CC2)c1` [Compound 8c, 3-(4-Benzoxazol-2-yl-piperazin-1-sulfonyl)-N -hydroxy-benzamid], the “GFP Induc.” value [1] was “-”, the IC50 [2] was 216 µM and the melting point was 257 to 262 °C.

With `O=C(NO)c1cccc(S(=O)(=O)N2CCN(c3nc4ccccc4[nH]3)CC2)c1` [Compound 8a, 3-[4(1H -Benzimidazol-2-yl)-piperazin-1-sulfonyl]-N -hydroxy-benzamid] the “GFP Induc.” value [1] was “-” and the melting point was 349 to 350 °C.

`CC(/C=C/C(=O)NO)=C\[C@@H](C)C(=O)c1ccc(N(C)C)cc1` [TSA, trichostatin A, reference compound] gave an IC50 (HCC4017) of 73 nM, an IC50 (HCC4018) of 23 nM and an IC50 (HBEC-30KT) of 285 nM. For the same compound, the IC50 (HBEC-34KT) was 346 nM, the IC50 (HDAC1 [3]) was […] and the IC50 (HDAC6) was 8.6 ± 1.4 nM.

For `CCC(=O)CCCCC[C@@H]1NC(=O)[C@H]2CCCCN2C(=O)[C@H]([C@@H](C)CC)NC(=O)[C@H](Cc2cn(OC)c3ccccc23)NC1=O` [Apicidin, reference compound], the IC50 (HCC4017; Homo sapiens, HCC4017, 96 h) was 120 nM, the “Selectivity (HBEC-30KT vs HCC4017)” value (HCC4017) was 0.75 and the IC50 (HCC4018; Homo sapiens, 96 h) was 30 nM. The “Selectivity (HBEC-34KT vs HCC4018)” value (HCC4018) was 26.3, the “selectivity higher by a factor compared to compounds 9b-d” value (HCC4018; cells derived from patient B) was 7–13 fold and the IC50 (HBEC-30KT; Homo sapiens, 96 h) was 90 nM. For the same compound, the IC50 (HBEC-34KT; Homo sapiens, 96 h) was 790 nM.

For `CN1CCc2c(c3ccccc3n2Cc2ccc(C(=O)NO)cc2)C1` [Tubastatin A], the IC50 (HDAC1 [4]) is listed as […].
